Measured values taken from US20110177105A1, “Novel Selective Inhibitors of Ubiquitin Specific Protease 7, the Pharmaceutical Compositions Thereof and Their Therapeutic Applications” (priority 2010, published 2011).

Target: T1, USP8 (Homo sapiens, UniProt P40818)
T1 construct: His tag (pFastBac-HT vector); made in house; host or cells: Sf9 or High Five insect cells, baculovirus
T1 sequence (P40818 1-1118): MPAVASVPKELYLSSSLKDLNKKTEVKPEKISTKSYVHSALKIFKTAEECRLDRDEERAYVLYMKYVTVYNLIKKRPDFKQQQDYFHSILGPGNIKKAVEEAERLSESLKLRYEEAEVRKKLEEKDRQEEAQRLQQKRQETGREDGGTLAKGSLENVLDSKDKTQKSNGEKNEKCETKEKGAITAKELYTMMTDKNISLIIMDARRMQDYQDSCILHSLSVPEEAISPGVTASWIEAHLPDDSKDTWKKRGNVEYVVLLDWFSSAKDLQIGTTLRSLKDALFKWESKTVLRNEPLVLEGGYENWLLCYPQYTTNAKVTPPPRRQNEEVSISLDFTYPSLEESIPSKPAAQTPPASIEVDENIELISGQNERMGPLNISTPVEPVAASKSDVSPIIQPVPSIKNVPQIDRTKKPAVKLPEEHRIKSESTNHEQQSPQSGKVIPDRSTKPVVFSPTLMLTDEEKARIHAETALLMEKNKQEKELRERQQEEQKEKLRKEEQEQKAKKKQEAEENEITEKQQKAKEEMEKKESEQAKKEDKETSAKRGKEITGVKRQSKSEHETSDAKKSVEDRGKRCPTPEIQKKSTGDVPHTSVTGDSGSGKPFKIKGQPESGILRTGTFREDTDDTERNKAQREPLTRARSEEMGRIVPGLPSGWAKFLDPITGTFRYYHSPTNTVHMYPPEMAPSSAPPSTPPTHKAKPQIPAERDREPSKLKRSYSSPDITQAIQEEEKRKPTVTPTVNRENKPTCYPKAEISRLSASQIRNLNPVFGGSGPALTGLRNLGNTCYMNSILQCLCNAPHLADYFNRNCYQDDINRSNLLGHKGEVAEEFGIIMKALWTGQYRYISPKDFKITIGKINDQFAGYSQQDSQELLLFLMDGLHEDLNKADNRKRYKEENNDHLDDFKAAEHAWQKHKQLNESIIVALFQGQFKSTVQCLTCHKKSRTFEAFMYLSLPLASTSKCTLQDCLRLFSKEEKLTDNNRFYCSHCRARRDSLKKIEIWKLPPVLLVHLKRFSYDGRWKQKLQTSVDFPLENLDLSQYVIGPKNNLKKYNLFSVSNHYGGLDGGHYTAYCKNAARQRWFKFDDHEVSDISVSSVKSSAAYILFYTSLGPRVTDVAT
Experiment: USP8 activity assay (Ub-AMC)
Format: biochemical
Conditions: 300 nM Ub-AMC, 1.36 nM enzyme
From the text: The cDNA encoding USP8 was obtained by PCR amplification from placenta mRNA. USP8 cDNA was subcloned by PCR into a baculovirus expression vector (pFastBac-HT; Invitrogen). A cDNA encoding a mutated USP8 was generated by mutagenic PCR. The corresponding protein encodes a cysteine to alanine substitution at residue 786. The sequences were ascertained by sequencing of the entire open reading frame. Bacmids encoding USP8 were generated following DH10bac transposition. The corresponding bacmids were transfected into insect cells (Sf9). Viruses were recovered from culture supernatant and amplified twice. Insect cells (Sf9 or High Five; Invitrogen) were infected for 72 hours. Total cell lysates were harvested and lyzed in lysis buffer (Tris HCl 50 mM pH 7.6; 0.75% NP40; 500 mM NaCl; 10% glycerol; 1 mM DTT; 10 mM imidazole; Protease Inhibitor Cocktail; AEBSF 20 μg·ml^−1; Aprotinin 10 μg·ml^−1). Proteins were affinity purified on metal affinity resins (Talon Metal affinity resin; BD Biosciences). Bound materials were extensively washed in wash buffer (50 mM Sodium Phosphate pH 7.0; 300 mM NaCl; 10 mM imidazole; 0.5% Triton X-100; 10% glycerol) and eluted from the resin in 250 mM imidazole-containing wash buffer. Proteins were dialyzed in dialysis buffer (Tris HCl pH 7.6 20 mM; NaCl 200 mM; DTT 1 mM; EDTA 1 mM; 10% Glycerol). Proteins purifications were analyzed on 4-12% NuPAGE (Invitrogen).
USP8 was diluted in USP buffer (50 mM Tris HCl; 0.5 mM EDTA; 5 mM DTT; 0.01% Triton X-100; Bovine Serum Albumin 0.05 mg·ml^−1 pH 8.8). Compounds stocks (100 mM) were stored at −20° C. in DMSO. Compounds were tested at different concentrations: from […] to 91 nM.
Reactions were performed as duplicates in Black 384 well plates (small volume microplates; Greiner; 10 μl final reaction volume). The substrate concentration for USP8 was 300 nM Ub-AMC (Boston Biochem). The concentration of the enzyme (USP8) in specificity assays was 1.36 nM. The concentrations were determined in order to perform specificity assays under initial velocities at fixed substrate concentration. Compounds were pre-incubated with enzymes for 30 minutes at 25° C. Reactions were initiated by addition of substrate to the plates containing the enzymes (+/−compounds) diluted in assay buffer. Reactions were incubated for 60 minutes at 37° C. Reactions were stopped by adding acetic acid (100 mM final). Readings were performed on a Pherastar Fluorescent Reader (BMG). λ Emission 380 nm: λ Excitation=460 nm. Data (mean values+/−standard deviation) were analyzed as % of control (no compound) and plotted as percentage versus the Log of the compound concentration using GraphPad (Prism). Data were fitted to a sigmoidal model (variable slope).

| SMILES | IC50 [µM] |
| --- | --- |
| CN1CCN(CCCNC(=O)c2ccc3c(Cl)c4c(nc3c2)CCCC4)CC1 [Example 15, 9-Chloro-5,6,7,8-tetrahydro-acridine-3-carboxylic acid [3-(4-methyl-piperazin-1-yl)-propyl]-amide] | > 200 |
| CCN(CC)CCCNC(=O)c1ccc2c(Cl)c3c(nc2c1)CCCC3 [Example 10, 9-Chloro-5,6,7,8-tetrahydro-acridine-3-carboxylic acid (3-diethylamino-propyl)-amide] | > 200 |
| CCCCN(CC)CCNC(=O)c1ccc2c(Cl)c3c(nc2c1)CCCC3 [Example 4, 9-Chloro-5,6,7,8-tetrahydro-acridine-3-carboxylic acid [2-(butyl-ethyl-amino)-ethyl]-amide] | > 200 |
| CCN(CC)CCNC(=O)c1ccc2c(Cl)c3c(nc2c1)CCCC3 [Example 7, 9-Chloro-5,6,7,8-tetrahydro-acridine-3-carboxylic acid (2-diethylamino-ethyl)-amide] | > 200 |
| CN(C)CCNC(=O)c1ccc2c(Cl)c3c(nc2c1)CCCC3 [Example 11, 9-Chloro-5,6,7,8-tetrahydro-acridine-3-carboxylic acid (2-dimethylamino-ethyl)-amide] | > 200 |
| CCCN(CCC)CCCNC(=O)c1ccc2c(Cl)c3c(nc2c1)CCCC3 [Example 6, 9-Chloro-5,6,7,8-tetrahydro-acridine-3-carboxylic acid (3-dipropylamino-propyl)-amide] | > 200 |
| CCCN1CCN(CCCNC(=O)c2ccc3c(Cl)c4c(nc3c2)CCCC4)CC1 [Example 13, 9-Chloro-5,6,7,8-tetrahydro-acridine-3-carboxylic acid [3-(4-propyl-piperazin-1-yl)-propyl]-amide] | > 200 |
| O=C(c1ccc2c(Cl)c3c(nc2c1)CCCC3)N1CCC(N2CCCCC2)CC1 [Example 16, [1,4′]Bipiperidinyl-1′-yl-(9-chloro-5,6,7,8-tetrahydro-acridin-3-yl)-methanone] | > 200 |
| CN(CCCNC(=O)c1ccc2c(Cl)c3c(nc2c1)CCCC3)Cc1ccccc1 [Example 14, 9-Chloro-5,6,7,8-tetrahydro-acridine-3-carboxylic acid [3-(benzyl-methyl-amino)-propyl]-amide] | > 200 |
| Cc1cccc(CN2CCC(CNC(=O)c3ccc4c(Cl)c5c(nc4c3)CCCC5)CC2)c1 [Example 1, 9-Chloro-5,6,7,8-tetrahydro-acridine-3-carboxylic acid [1-(3-methyl-benzyl)-piperidin-4-ylmethyl]-amide] | > 200 |
| CCCN(CCC)CCNC(=O)c1ccc2c(Cl)c3c(nc2c1)CCCC3 [Example 3, 9-Chloro-5,6,7,8-tetrahydro-acridine-3-carboxylic acid (2-dipropylamino-ethyl)-amide] | > 200 |
| O=C(c1ccc2c(Cl)c3c(nc2c1)CCCC3)N1CCCCCC1 [Example 12, Azepan-1-yl-(9-chloro-5,6,7,8-tetrahydro-acridin-3-yl)-methanone] | > 200 |
| CC1CCCC(C)N1CCCNC(=O)c1ccc2c(Cl)c3c(nc2c1)CCCC3 (stereo not drawn) [Example 9, 9-Chloro-5,6,7,8-tetrahydro-acridine-3-carboxylic acid [3-(2,6-dimethyl-piperidin-1-yl)-propyl]-amide] | > 200 |
| O=C(NCCCN1CCCC1)c1ccc2c(Cl)c3c(nc2c1)CCCC3 [Example 8, 9-Chloro-5,6,7,8-tetrahydro-acridine-3-carboxylic acid (3-pyrrolidin-1-yl-propyl)-amide] | > 200 |
| CCN(CCCNC(=O)c1ccc2c(Cl)c3c(nc2c1)CCCC3)Cc1ccccc1 [Example 5, 9-Chloro-5,6,7,8-tetrahydro-acridine-3-carboxylic acid [3-(benzyl-ethyl-amino)-propyl]-amide] | > 200 |
